Tests used:
[1] = system: subjects who had been frequent users of Viagra®; assay: blinded study in volunteers, subjective evaluation whether an adequate, satisfactory erection was achieved; assay type: in vivo, human; details: oral capsule, out of 12 subjects
Protocol: In its preferred embodiment, three composition containing sildenafil citrate 12.5 mg, 25 or 50 mg containing the same amounts of L-arginine 200 mg, ginseng 100 mg, folic acid 0.5 mg, vitamin B6 100 mg and vitamin B12 0.75 mg were formulated in a capsule dosage form with suitable inert diluents to hide the identity of the product. […] In a blinded study, the volunteers were given all six products to test on an ad-lib basis. They were informed that the test includes evaluation of two formulations of sildenafil citrate. The volunteers were asked to evaluate the response subjectively whether an adequate, satisfactory erection was achieved. In its preferred embodiment, three composition containing sildenafil citrate 12.5 mg, 25 or 50 mg, and the same amounts of L-arginine 200 mg, ginseng 100 mg, folic acid 0.5 mg, vitamin B6 100 mg and vitamin B12 0.75 mg were formulated in a capsule dosage form with suitable inert diluents to hide the identity of the product. […] In a blinded study, the volunteers were given all six products to test on an ad-lib basis. They were informed that the test includes evaluation of two formulations of sildenafil citrate. At the lowest dose of 12.5 mg, when given alone, only 3 out of 12 subjects reported erection; when given as the composition described, 7 out of 12 subjects reported satisfactory erection. At 25 mg dose 8 out of 12 subjects reported satisfactory erection while 10 subjects reported satisfactory erection at 25 mg dose when given as the composition described. At 50 mg dose the difference was narrowed to 10 subjects reporting erection when given alone and 11 when given as the composition described. It is concluded from this study that using the combination of ingredients as specified in the composition, the required dose of sildenafil to treat sexual dysfunction can be reduced to achieve the same effect as when given alone but at higher does. The most significant advantage appears at lower doses. […]

men = details: controlled clinical trials; cited from earlier work
[2] = system: isolated human corpus cavernosum; details: cited from earlier work

## CCCc1nn(C)c2c(=O)[nH]c(-c3cc(S(=O)(=O)N4CCN(C)CC4)ccc3OCC)nc12.O=C(O)CC(O)(CC(=O)O)C(=O)O [Viagra®, 1-[[3-(6,7-dihydro-1-methyL-7-oxo-3-propyL-1H-pyrazolo[4,3-d]pyrimidin-5-yl)-4-ethoxyphenyl]sulfonyl]-4-methylpiperazine citrate]
[1]; 12.5 mg sildenafil citrate dose
  subjects reporting satisfactory erection: 3 subjects
[1]; 25 mg sildenafil citrate dose
  subjects reporting satisfactory erection: 8 subjects
[1]; 50 mg sildenafil citrate dose
  subjects reporting satisfactory erection: 10 subjects
men
  proves effective in men: 7 out of 10
[2]
  direct relaxant effect: no direct relaxant effect
